Assay results: patent publication US10105446B2, “Pharmaceutical compositions for high-capacity targeted delivery” (Wake Forest University Health Sciences, priority 2013, dated 2018)

How the values were obtained:
PSMA+ C4-2 cells = test: Uptake/internalization by confocal microscopy and flow cytometry, PSMA+ C4-2 cells; assay type: cell-based
Experimental: (§1) Cells were seeded at 20,000 cells/well in 8-well Lab-Tek® II chambered #1.5 German coverglass system (Thermo Fisher Sci., Waltham, Mass.), and incubated at 37° C. under 5% CO2 for 2 days. Cells were incubated with 1 μM of DAC in which the dA16 aptamer was labeled with Quasar 570 at the 5′-terminus and the T16 aptamer was labeled with Quasar 670 dyes in RPMI with 10% FBS for 2 h at 37° C. Cells were washed with fresh media and DPBS, followed by a 5 min fixation with 3.7% formaldehyde in DPBS. Cells were visualized using a Zeiss LSM510 confocal microscope (Carl Zeiss, Oberkochen, Germany). Cells were also incubated with 1 μM of DAC-D (or the non-covalent DAC+D), for 2 h. DAC were only labeled with Quasar 670 for these studies as the Quasar 570 emission would interfere with the Dox emission. Cells were washed, fixed, and imaged using identical procedures.
(§2) PC3 and C4-2 cells were incubated with 1 μM of DAC for 2 h at 37° C. Dimers were fluorescently labeled with either Quasar 570 or 670 alone, or both. Cells were trypsinized and washed with PBS twice. Cells re-suspended in PBS were analyzed to measure their intracellular fluorescence using the Accuri™ C6 flow cytometer (BD Biosciences).

[1] = Determination of Dox:DNA ratios by absorbance; assay type: physicochemical
Experimental: DNA Ratios: DNA samples were prepared in dH2O, and absorbencies were measured from 200-800 nm using a Beckman Coulter DU800 spectrophotometer. A standard curve of Dox was established between 1 μM and 10 μM by using absorbencies at 494 nm at 85° C. To assess the amount of Dox covalently bound to DNA, the samples were heated to 85° C. before measuring the absorbance at 494 nm and 260 nm. The 260 nm wavelength was used to determine the DNA content in the sample and to determine the Dox:DNA ratio.

PSMA-null PC3 cells = test: Uptake/internalization by confocal microscopy and flow cytometry, PSMA-null PC3 cells; assay type: cell-based; details: 1 μM, 2 h, confocal microscopy
Experimental: as §1, §2

[2] = Temperature-dependent UV melting (thermal stability of dimeric aptamer complexes); assay type: physicochemical; details: UV absorbance at 260 nm, heating 0.7° C./min
Experimental: Temperature-dependent UV absorption spectra were obtained using a Beckman Coulter DU-800 UV-Vis spectrophotometer. Samples of DAC, DAC-D, and DAC+D were prepared. The temperature was increased at a rate of 0.7° C./min over the range 20-85° C. and absorbance at 260 nm was measured for each sample, (400 μL, 1 μM) concentration.

C4-2 cells = test: Cytotoxicity, CellTiter-Glo cell viability assay, C4-2 cells; assay type: cell-based
Experimental: (§3) PC3, C4-2, and C4-2Luc cells were seeded at a density of 3,000 cells/well in 96-well plates and incubated at 37° C. under 5% CO2. Next day, the cells were treated with Dox, DAC+Dox, or DAC-D for 24 h. Next day the treatment was removed, cells were washed once with warm fresh media and incubated for another 48 h in fresh media. Cell counts were measured indirectly by measuring the ATP amounts using CellTiter-Glo® luminescent cell viability assay (Promega, Madison, Wis.) according to the manufacturer's protocol. In co-culture experiments, PC3 and C4-2Luc cells were each seeded at a density of 1,500 cells/well in 96-well plates. Co-cultured cells were treated with Dox, DAC+Dox, or DAC-D and cell viability was also measured using the CellTiter-Glo® assay. Luciferase levels were measured for co-cultures of PC3 and C4-2Luc cells using a luciferase reporter assay system (Promega). PC3 and C4-2Luc cells were seeded and treated as described above and the cells were lysed and luciferase activity was measured according to the manufacturer's protocol.

[3] = cited from earlier work
PC3 cells = test: Cytotoxicity, CellTiter-Glo cell viability assay, PC3 cells; assay type: cell-based
Experimental: as §3

| Compound | uptake of fluorescently-labeled aptamer (PSMA+ C4-2 cells; 1 μM, 2 h, Quasar 570/670 labels, confocal microscopy) | uptake after pre-incubation with J591 PSMA-specific monoclonal antibody (PSMA+ C4-2 cells; C4-2 cells pre-incubated with J591) | calc ratio (Dox bound per DAC) ([1]; Dox:DAC ratio 16x) | calc ratio (Dox bound per DAC) ([1]; Dox:DAC ratio 24x) | calc ratio (Dox bound per DAC) ([1]; Dox:DAC ratio 32x) | molar equivalents of doxorubicin that can be covalently bound to each DAC ([1]; titration) | uptake of fluorescently-labeled aptamer (PSMA-null PC3 cells; Quasar 570/670 labels) | dissociation temperature [2] | Dox internalization / nuclear accumulation (PSMA+ C4-2 cells; 1 μM, 2 h, confocal microscopy, C4-2 cells) | reduction in viability (C4-2 cells; 2 μM Dox, 24 h treatment + 48 h growth, cell line not specified in the sentence (PC3 and C4-2)) | cytotoxicity (in words) (C4-2 cells; C4-2 cells) | pKa of the doxorubicin amino group [3] | Dox internalization / nuclear accumulation (PSMA-null PC3 cells; PC3 cells) | cytotoxicity (in words) (PC3 cells) |
| --- | --- | --- | --- | --- | --- | --- | --- | --- | --- | --- | --- | --- | --- | --- |
| DAC: Dimer of PSMA DNA aptamer SZTI01 annealed through dCGGCA16GCCG / dCGGCT16GCCG tails (SEQ ID NO:5, 6) (chain 1 CGGCAAAAAAAAAAAAAAAAGCCG; chain 2 CGGCTTTTTTTTTTTTTTTTGCCG; DNA, backbone and methylation of C not given here; tails of DNA aptamer dimer, further chemistry not fully specified) | strong signal | attenuated | 10.8 | 14.18 | 13.7156 | 14 molar equivalents | minimal uptake | ~58 °C | – | – | – | – | – | – |
| COc1cccc2c1C(=O)c1c(O)c3c(c(O)c1C2=O)C[C@@](O)(C(=O)CO)C[C@@H]3O[C@H]1C[C@H](N)[C@H](O)[C@H](C)O1 [Dox, doxorubicin] | – | – | – | – | – | – | – | – | readily accumulated | ~90% | highly cytotoxic | 8.2 | readily accumulated | highly cytotoxic |
